In patent US7781480B2, “Indole derivatives and their metal conjugates and uses thereof” (VLife Sciences Technologies Pvt. Ltd., priority 2007, dated 2010):

How the values were obtained:
[1] = test system: BxPC3 (wild type K-Ras pancreatic cancer); test: MTT cell growth inhibition assay, BxPC3; type: cell-based; settings: BxPC3, 72 h; read-out: MTT Assay EC50 after 72 h
Protocol: (§1) COLO 357 cells (K-ras mutated pancreatic cancer) were seeded at a density of 3×10^3 cells per well in 96-well microtiter culture plates. After overnight incubation, medium was removed and replaced with fresh medium containing different concentrations of compounds (0-100 μmol/L) diluted from a 10 mmol/L stock. On completion of 72 hours of incubation, 20 μL of 3-(4,5-dimethylthiazol-2-yl)-2,5-diphenyltetrazolium bromide (MTT) solution (5 mg/mL in PBS) were added to each well and incubated further for 2 hours. Upon termination, the supernatant was aspirated and the MTT formazan formed by metabolically viable cells was dissolved in 100 μL of isopropanol. The plates were mixed for 30 minutes on a gyratory shaker, and absorbance was measured at 595 nm using a plate reader (TECAN, Durham, N.C.). A similar protocol was used for BxPC3 (wild type K-Ras pancreatic cancer), PC3 (prostate cancer) and HCT (colon cancer) cell lines.
(§2) Cells were plated as described above and allowed to attach overnight. The cells were replaced with fresh medium containing 25 μmol/L of Compound 1 and Compound 2 for 72 hours. The effect of Compound 1 and Compound 2 pretreatment on cell viability was examined by the MTT assay method as described above.

[2] = test system: COLO 357 cells (K-ras mutated pancreatic cancer); test: MTT cell growth inhibition assay, COLO357; type: cell-based; settings: COLO357, 72 h; read-out: MTT Assay EC50 after 72 h
Protocol: as §1, §2

HCT116 (colon cancer) = test: MTT cell growth inhibition assay, HCT116; type: cell-based; settings: HCT116, 72 h; read-out: MTT Assay EC50 after 72 h
Protocol: as §1, §2

PC3 (prostate cancer) = test: MTT cell growth inhibition assay, PC3; type: cell-based; settings: PC3, 72 h; read-out: MTT Assay EC50 after 72 h
Protocol: as §1, §2

BxPC3 = test: Quantification of apoptosis by ELISA, BxPC3; type: cell-based; settings: BxPC3, 25 mmol/L, 72 hours; control 0.50
Protocol: (§3) The Cell Apoptosis ELISA Detection Kit (Roche, Palo Alto, Calif.) was used to detect apoptosis in COLO357 cells, with different treatments according to the manufacturer's protocol. Briefly, COLO357 cells were treated with […] of Compound 1 and Compound 2 for 72 hours. After treatment, the cytoplasmic histone DNA fragments from COLO 357 cells with different treatments were extracted and bound to immobilized anti-histone antibody.
(§4) Subsequently, the peroxidase-conjugated anti-DNA antibody was used for the detection of immobilized histone DNA fragments. After addition of substrate for peroxidase, the spectrophotometric absorbance of the samples was determined using ULTRA Multifunctional Microplate Reader (TECAN) at 405 nm. A similar protocol was used for BxPC3, PC3 and HCT116 cell lines.

COLO357 cells = test: Quantification of apoptosis by ELISA, COLO357; type: cell-based; settings: COLO357, 72 hours; control 0.75
Protocol: as §3, §4

HCT116 = test: Quantification of apoptosis by ELISA, HCT116; type: cell-based; settings: HCT116, 72 hours; control 0.35
Protocol: as §3, §4

PC3 = test: Quantification of apoptosis by ELISA, PC3; type: cell-based; settings: PC3, 72 hours; control 0.50
Protocol: as §3, §4

Akt = Akt assay (ELISA based activity kit); type: biochemical
Protocol: Akt activity kit is an ELISA based activity kit that utilizes biotinylated peptide substrate (GRPRTSSFAEG) that is phosphorylated on second serine by Akt1, Akt2, Akt3, SGK and MSK1. Biotinylated Akt substrate and sample containing Akt are incubated in presence of ATP in the wells of a streptavidin coated 96-well plate, which allows for phosphorylation and substrate capture in a single step. The phosphorylated substrate is detected using phosphoserine detection antibody followed by HRP-antibody conjugate and color development with TMB substrate. Sensitivity is increased by addition of ELISA stop solution and relative activity is determined by reading dual absorbance at 450/540 nm or 450/595 nm. Inhibition profiles can be generated based on Akt activity in the presence and absence of test inhibitor(s).

| EC50 [1] [µM] | EC50 [2] [µM] | EC50 (HCT116 (colon cancer)) [µM] | EC50 (PC3 (prostate cancer)) [µM] | Substance | O.D. Of Histone/DNA at 405 nm (BxPC3) | O.D. Of Histone/DNA at 405 nm (COLO357 cells) | O.D. Of Histone/DNA at 405 nm (HCT116) | O.D. Of Histone/DNA at 405 nm (PC3) | Akt inhibitory activity (Akt) |
| --- | --- | --- | --- | --- | --- | --- | --- | --- | --- |
| 18.9 | 14.3 | 14.1 | 16.6 | Cu(II) complex of (2Z)-2-(N-hydroxyimino)-N′-[(1Z)-1H-indol-3-ylmethylidene]-1,3-dioxobutanehydrazide [Compound 2] | 1.80 | 2.00 | 1.75 | 1.90 | micromolar range |
| 28.9 | 14.6 | 11.7 | 28.8 | Cu(II) complex of 2-amino-3-[(Z)—N′-(1H-indol-3-ylmethylidene)hydrazinecarbonyl]-propanoic acid [Compound 1] | 2.20 | 1.90 | 1.60 | 0.60 | micromolar range |
